Three compounds from patent US11583555B2, “Genetic re-engineering of immune cells to improve metabolic fitness for immunotherapy” (University of Pittsburgh—Of the Commonwealth System of …, priority 2016, dated 2023) can be followed below.

What all share (type): in vivo
Test [1] deals with Akt. Nature of the test: Akt inhibitor treatment of B16-bearing mice, PGC1α levels and mitochondrial mass of CD8^+ T cells. To be noted: short-term treatment (72 h). On the procedure:
FIGS. 11A-11H. Intratumoral T cell mitochondrial biogenesis is repressed by chronic Akt-mediated repression of PGC1α (A) Flow cytogram (left) and tabulated data (right) of PGC1α intracellular staining in CD8^+ T cells isolated from nondraining or draining LNs or TIL preparations from B16 or MC38 bearing mice. Shaded histogram indicates isotype control. (B) Flow cytogram of PGC1α expression in CTV-labeled, naïve OT-I T cells adoptively transferred into B16^OVA bearing mice for 72 h. Tabulation for multiple experiments is to the right. (C) Flow cytogram of cytokine production of congenically mismitached WT OT-I T cells transferred into B16^OVA-bearing or VV^OVA-infected mice for 96 h, then restimulated with SIINFEKL peptide. (D) Representative and tabulated phospho-Akt (S473) and phospho-Foxo1 (T24)/3a(T32) staining of the indicated cell populations in mice bearing 14-day B16 tumors. MFI is reported. (E) Representative flow cytogram and tabulated data indicating PGC1α staining in pAkt low or high cells. (F) MFI of pAkt staining in naïve OT-I T cells, or OT-I T cells transferred for 3 or 6 days into a B16^OVA-bearing or VV^OVA infected mouse. […] Results are representative of 5 (A,B, D) 3 (C, E, G, H) or 2 (F) independent experiments. *, p<0.05, **p<0.01, ***p<0.001 by unpaired t-test (A, F, G, H) or paired t-test (D, E, G, H). ***p<0.001 by two-way ANOVA. Error bars indicate s.e.m. […]

Test [2] has as its system tumor infiltrating T cells. Kind of test: m-divi-1 treatment of tumor-bearing mice after OT-I adoptive transfer, mitochondrial staining. To be noted: tumor-bearing mice treated 24 h after adoptive transfer. The protocol: FIGS. 5A-5E. T cell mitochondrial dysfunction is induced upon entry into the tumor microenvironment. (A) Representative flow cytogram and tabulated data of LN and TIL of naïve, CTV-labeled, OT-I (Thy 1.1^+) CD8^+ T cells transferred into B16^OVA-bearing mice (5-7 mm tumors), or the spleens of the same progenitor cells transferred into B6 mice infected with 1×10^6 PFU VV^OVA for 72 h. Cells were stained with MitoTracker Deep Red FM. (B) As in A, but with the mitochondrial membrane potential dye TMRE. (C) As in A, but with the cellular ROS indicator DCFDA. (D) As in A, but cells were permeabilized and stained intracellularly for LC3B. (E) Representative data from experiments as in A, but some mice received mitophagy inhibitor m-divi-1. Results represent the mean of three or four independent experiments, with n=7-9 mice per group. **p<0.01, ***p<0.001, ***p<0.0001 by two-way ANOVA. Error bars indicate s.e.m.
Single-cell metabolic capacity was assayed by flow cytometry. Specifically, 2-NBD-glucose (Cayman Chemical) and MitoTracker FM dyes (ThermoFisher) were utilized to assay the propensity of cells to take up glucose or generate intermediates via their mitochondria. […]
As mitochondrial depolarization can lead to autophagy, it was determined whether mitophagy may be mediating the loss of mitochondria in tumor-infiltrating T cells.

For test [3], the system named is tumor-infiltrating Treg cells. Kind of test: Treg depletion with diphtheria toxin in B16-bearing Foxp3^DTR.GFP mice. As to conditions: 3 days diphtheria toxin.

With `O=c1[nH]c2ccccc2n1C1CCN(Cc2ccc(-c3nc4cc5[nH]cnc5cc4nc3-c3ccccc3)cc2)CC1` [Akt inhibitor, Akt inhibitor VIII], the “PGC1α and mitochondrial sufficiency (metabolically suppressive phenotype)” value in test [1] is recorded as “partial rescue of the metabolically suppressive phenotype”.
Regarding `COc1cc(-n2c(=S)[nH]c3ccccc3c2=O)c(Cl)cc1Cl` [m-divi-1], in test [2], the “mitochondrial staining in tumor infiltrating T cells” value is given as “failed to improve mitochondrial staining”.
Turning to diphtheria toxin, in test [3], the “CD8^+ T cell MitoTracker FM staining” value is listed as “no significant increases in CD8^+ T cell MitoTracker FM staining” and the “depletion of tumor-infiltrating Treg cells” value is “near complete depletion of tumor-infiltrating Treg cells”.
